Measured values: patent publication US11518754B2, “Radiolabeled pharmaceuticals and methods of making and using same” (YALE UNIVERSITY, priority 2017, dated 2022)
Where two headings read alike, the source gives them in different places.

Legend:
SV2A [1] = molecular target: SV2A (Rattus norvegicus (Rat), UniProt Q02563)
Procedure: One Sprague Dawley rat was euthanized with carbon dioxide inhalation. The brain was harvested, rapidly frozen on dry ice and then stored at −80° C. The whole brain homogenates were obtained following published procedures. The final homogenate was suspended in 20 mM Tris-HCl buffer (pH 7.4) containing 250 mM of sucrose at a wet tissue concentration of 100 mg/mL and stored at −80° C. until use.
For competition binding experiments, 0.5 mg of the rat brain homogenates in 800 μL of binding buffer (2 mM MgCl2 in 50 mM Tris*HCl, pH=7.4) were incubated on a thermoshaker at 37° C. for 30 min with 100 μL (R)-^11C-3 or (R)-^18F-11 and 100 μL of the compound over a range of concentrations (from 0.1 to 100 nM). Nonspecific binding was defined as the residual binding observed in the presence of 1 mM levetiracetam (100 μL). At completion of the incubation period, the membrane-bound radioligand was recovered using rapid filtration through GF/B glass fiber filters (13 mm GD/X, Whatman Inc.) which were pre-soaked for at least 30 min in 0.5% polyethyleneimine (PEI). The membranes were washed twice with 1 mL of ice-cooled binding buffer. The binding mixtures, filters and filtrates were counted using cross-calibrated gamma counters (1480 & 2480 WIZARD; Perkin-Elmer). Values of IC50 were calculated using the [sequence] PRISM™ software and converted to inhibition constants (Ki) by the Cheng-Prusoff equation.

SV2A [2] = molecular target: SV2A (Macaca mulatta, UniProt H9EQH8); experiment: PET imaging studies in rhesus monkeys; conditions: levetiracetam 30 mg/kg i.v. or UCB-J 150 μg/kg i.v. before radiotracer injection
Procedure: Experiments were performed in rhesus monkeys (Macaca mulatta). Rhesus monkeys were sedated using intramuscular (i.m.) injection of ketamine and glycopyrrolate approximately 2 hours before the PET scan and anesthesia was maintained with isoflurane (1.5%-2.5%) for the duration of the experiments. Baseline PET scans were obtained after intravenous (i.v.) injection of ^11C-3, ^18F-3, ^18F-4, ^18F-5, ^18F-10, ^18F-11, or ^18F-12.
Arterial blood samples were collected during the PET scans to calculate the plasma input function and to determine the unmetabolized parent fraction using the automatic column-switching HPLC system. Plasma free fraction (fp) was measured in triplicate using the ultrafiltration method.
PET scans of the brain were acquired using the FOCUS 220 PET scanner (Siemens Preclinical Solutions) with a reconstructed image resolution of approximately 1.5 mm. After a transmission scan, the radioligand was injected i.v. as a 3 min slow bolus by an infusion pump (PHD 22/2000; Harvard Apparatus). List-mode data were acquired for 120-180 min and binned into sinograms with an applicable number of frames. Scan data were reconstructed with a Fourier rebinning/filtered backprojection algorithm with corrections for attenuation, scanner normalization, radiation scatter, and randoms. Regions of interest were manually delineated on a single representative anatomic rhesus monkey MR image registered to a template image. The regions used in this study were amygdala, brain stem, caudate, centrum semiovale, cerebellum, cingulate cortex, frontal cortex, globus pallidus, insular cortex, nucleus accumbens, occipital cortex, pons, putamen, temporal cortex, and thalamus. Registration parameters were obtained to apply the regions of interest to individual PET scans, and regional time-activity curves were generated. Regional time-activity curves of the brain were analyzed with the 1-tissue-(1T) compartment model. Fit quality was compared with the 2-tissue model and the multilinear analysis method to calculate VT.
Typical injected radioactivity amount was 0.5-5 mCi per injection, with typical injected mass amount of 1-10 μg.
Specific binding to SV2A was further examined for ^11C-3, ^18F-3, and ^18F-11 in blocking studies, where levetiracetam or UCB-J ((R)-3) was i.v. infused before injection of the radiotracers.

[3] = converted from IC50 by the Cheng-Prusoff equation
[4] = rat brain homogenates, radioligand (R)-11C-3 or (R)-18F-11, 37° C., 30 min
[5] = IC50, rat brain homogenates, radioligand (R)-11C-3 or (R)-18F-11, 37° C., 30 min
[6] = Ki, converted from IC50 by the Cheng-Prusoff equation

Sequence of SV2A (Rattus norvegicus (Rat), UniProt Q02563) (Q02563 whole entry): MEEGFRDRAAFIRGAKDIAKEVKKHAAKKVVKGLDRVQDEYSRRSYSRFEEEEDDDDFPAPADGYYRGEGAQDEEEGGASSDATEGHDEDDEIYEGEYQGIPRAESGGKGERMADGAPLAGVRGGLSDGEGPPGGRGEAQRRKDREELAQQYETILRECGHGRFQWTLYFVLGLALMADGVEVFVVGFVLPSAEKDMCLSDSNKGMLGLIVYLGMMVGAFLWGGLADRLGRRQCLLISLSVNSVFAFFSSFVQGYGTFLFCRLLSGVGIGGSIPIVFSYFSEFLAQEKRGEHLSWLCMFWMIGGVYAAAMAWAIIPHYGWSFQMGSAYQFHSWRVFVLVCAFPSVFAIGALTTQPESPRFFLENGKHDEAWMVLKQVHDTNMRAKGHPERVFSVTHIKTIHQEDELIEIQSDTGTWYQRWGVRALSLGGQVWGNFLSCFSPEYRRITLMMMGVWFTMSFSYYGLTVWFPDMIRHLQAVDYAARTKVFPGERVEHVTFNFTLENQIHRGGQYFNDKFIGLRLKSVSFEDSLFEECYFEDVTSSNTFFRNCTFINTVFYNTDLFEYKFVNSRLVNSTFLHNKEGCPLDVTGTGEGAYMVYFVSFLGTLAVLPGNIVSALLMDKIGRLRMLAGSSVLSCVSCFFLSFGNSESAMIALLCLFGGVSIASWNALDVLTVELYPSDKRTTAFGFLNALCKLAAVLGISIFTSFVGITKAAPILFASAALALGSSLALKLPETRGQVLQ
Sequence of SV2A (Macaca mulatta, UniProt H9EQH8) (H9EQH8 1-742): as the sequence (Q02563 whole entry) above, with E53D, A62S, G64S, A71T, D144E, T154A, S440G, A482S, L634M counted along it

O=C1CC(c2cccc(F)c2)CN1Cc1ccncc1 (single isomer, unassigned) [(S)-12, 4-(3-Fluorophenyl)-1-(pyridin-4-ylmethyl)pyrrolidin-2-one]
IC50 (SV2A [1]): 28.2 nM
Ki (SV2A [1]): 4.66 nM

Cc1cnccc1CN1C[C@@H](c2cc(F)cc(F)c2)CC1=O (single isomer, unassigned) [Compound (R)-5, 4-(3,5-Difluorophenyl)-1-((3-methylpyridin-4-yl)methyl)pyrrolidin-2-one]
Ki (SV2A [1]; [3]): 0.58 nM
IC50 (SV2A [1]; [4]): 3.52 nM

Cc1cnccc1CN1CC(c2cccc(F)c2)CC1=O (single isomer, unassigned) [(S)-11, 4-(3-Fluorophenyl)-1-((3-methylpyridin-4-yl)methyl)pyrrolidin-2-one]
IC50 (SV2A [1]; [5]): 109 nM
Ki (SV2A [1]; [6]): 18.2 nM

Cc1cnccc1CN1C[C@H](c2cc(F)c(F)c(F)c2)CC1=O (single isomer, unassigned) [(S)-3, 1-((3-methylpyridin-4-yl)methyl)-4-(3,4,5-trifluorophenyl) pyrrolidin-2-one]
Ki (SV2A [1]; [3]): 12.5 nM
IC50 (SV2A [1]; [4]): 75.6 nM

Cc1cnccc1CN1CC(c2cc(F)c(F)c(F)c2)CC1=O (single isomer, unassigned) [(R)-3, 1-((3-methylpyridin-4-yl)methyl)-4-(3,4,5-trifluorophenyl) pyrrolidin-2-one]
IC50 (SV2A [1]; [5]): 1.62 nM
Ki (SV2A [1]; [6]): 0.27 nM
blocking of radiotracer specific binding to SV2A (SV2A [2]): blocking of specific binding

Cc1cnccc1CN1CC(c2ccc(F)c(F)c2)CC1=O (single isomer, unassigned) [(R)-4, 4-(3,4-difluorophenyl)-1-((3-methylpyridin-4-yl)methyl)pyrrolidin-2-one]
IC50 (SV2A [1]): 12.6 nM
Ki (SV2A [1]): 2.08 nM

CC[C@@H](C(N)=O)N1CCCC1=O [levetiracetam, reference compound]
blocking of radiotracer specific binding to SV2A (SV2A [2]): blocking of specific binding

Cc1cnccc1CN1C[C@H](c2cc(F)cc(F)c2)CC1=O (single isomer, unassigned) [(S)-5, 4-(3,5-Difluorophenyl)-1-((3-methylpyridin-4-yl)methyl)pyrrolidin-2-one]
Ki (SV2A [1]; [3]): 115 nM
IC50 (SV2A [1]; [4]): 698 nM

O=C1C[C@H](c2cccc(F)c2)CN1Cc1ccncc1 (single isomer, unassigned) [(R)-12, 4-(3-Fluorophenyl)-1-(pyridin-4-ylmethyl)pyrrolidin-2-one]
Ki (SV2A [1]; [3]): 4.43 nM
IC50 (SV2A [1]; [4]): 26.8 nM

Cc1cnccc1CN1C[C@H](c2ccc(F)c(F)c2)CC1=O (single isomer, unassigned) [(S)-4, 4-(3,4-difluorophenyl)-1-((3-methylpyridin-4-yl)methyl)pyrrolidin-2-one]
Ki (SV2A [1]; [3]): 9.43 nM
IC50 (SV2A [1]; [4]): 57 nM

Cc1cnccc1CN1CC(c2cccc(F)c2)CC1=O (single isomer, unassigned) [(R)-11, 4-(3-Fluorophenyl)-1-((3-methylpyridin-4-yl)methyl)pyrrolidin-2-one]
IC50 (SV2A [1]; [5]): 26.9 nM
Ki (SV2A [1]; [6]): 4.44 nM
